# Data published in article PMC9354082, “5-HT3 Receptor MX Helix Contributes to Receptor Function” (ACS Chemical Neuroscience, 2022).
# Residue numbers refer to the chain shown, from its start.
# Assays:
# Assay in all cases: Radioligand binding, transfected HEK293 cell membranes
# Conditions in all cases: HEK cell membranes, n=4
# [1] = target: T1, H323A mutant 5-HT3 receptor (Mus musculus, UniProt P23979, H350A)
# T1 construct: expressed in transfected cells; host or cells: HEK293 cells (membranes)
# T1 sequence (P23979 24-489 H350A): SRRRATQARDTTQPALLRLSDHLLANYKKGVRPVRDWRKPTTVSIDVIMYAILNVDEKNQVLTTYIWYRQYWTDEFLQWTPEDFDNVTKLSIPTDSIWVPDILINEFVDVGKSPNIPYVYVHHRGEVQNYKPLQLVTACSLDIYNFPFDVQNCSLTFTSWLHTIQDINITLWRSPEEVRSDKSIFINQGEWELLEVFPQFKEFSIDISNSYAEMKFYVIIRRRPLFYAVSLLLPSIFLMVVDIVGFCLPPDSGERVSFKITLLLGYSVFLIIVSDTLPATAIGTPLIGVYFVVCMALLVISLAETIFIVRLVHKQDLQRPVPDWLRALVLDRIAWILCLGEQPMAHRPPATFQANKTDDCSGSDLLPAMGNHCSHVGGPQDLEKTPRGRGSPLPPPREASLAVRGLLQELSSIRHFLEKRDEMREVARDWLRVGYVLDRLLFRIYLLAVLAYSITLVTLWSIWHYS
# Description: (§1) One method to explore this is to perform radiolabeled ligand binding to examine the parameters associated with the binding site.
# (§2) This was undertaken as previously described.[23] Briefly, transfected HEK293 cell membranes were incubated in 0.5 ml of HEPES buffer containing the 5-HT3 receptor antagonist [^3H]GR65630 to label cell surface receptors. Nonspecific binding was determined using 1 μM quipazine. Data were analyzed by iterative curve fitting using Prism. Values are presented as mean ± SEM.
# [2] = target: T2, P318A mutant 5-HT3 receptor (Mus musculus, UniProt P23979, P345A)
# T2 construct: expressed in transfected cells; host or cells: HEK293 cells (membranes)
# T2 sequence (P23979 24-489 P345A): T1 sequence (P23979 24-489 H350A) with P322A, A327H
# Description: as §1, §2
# [3] = target: T3, WT 5-HT3 receptor (Mus musculus, UniProt P23979)
# T3 construct: expressed in transfected cells; host or cells: HEK293 cells (membranes)
# T3 sequence (P23979 24-489): T1 sequence (P23979 24-489 H350A) with A327H
# Description: as §1, §2
structure (smiles),measurement,setting,value
Cc1[nH]cnc1CCC(=O)c1cn(C)c2ccccc12 [[^3H]GR65630],Bmax,[1],1.0 ± 0.1 pmol/mg protein
same,Bmax,[2],0.9 ± 0.2 pmol/mg protein
same,Bmax,[3],1.1 ± 0.4 pmol/mg protein
same,Kd,[3],0.25 ± 0.1 nM
